Measured values taken from ChEMBL document CHEMBL2440063, “Fragment-based identification of a locus in the Sec7 domain of Arno for the design of protein-protein interaction inhibitors” (J Med Chem, 2013).
Calls of active or inactive are those of the source. No cut-off for these calls is given here.

Legend:
[1] = biological target: T1, Cytohesin-2 (Homo sapiens) (UniProt Q99418); assay: Inhibition of human Arno Sec7 domain-mediated nucleotide exchange in delta17 Arf1 (17 to 181) at 2 mM by BODIPY-GTP based time resolved fluorescence assay relative to control
T1 sequence (whole entry): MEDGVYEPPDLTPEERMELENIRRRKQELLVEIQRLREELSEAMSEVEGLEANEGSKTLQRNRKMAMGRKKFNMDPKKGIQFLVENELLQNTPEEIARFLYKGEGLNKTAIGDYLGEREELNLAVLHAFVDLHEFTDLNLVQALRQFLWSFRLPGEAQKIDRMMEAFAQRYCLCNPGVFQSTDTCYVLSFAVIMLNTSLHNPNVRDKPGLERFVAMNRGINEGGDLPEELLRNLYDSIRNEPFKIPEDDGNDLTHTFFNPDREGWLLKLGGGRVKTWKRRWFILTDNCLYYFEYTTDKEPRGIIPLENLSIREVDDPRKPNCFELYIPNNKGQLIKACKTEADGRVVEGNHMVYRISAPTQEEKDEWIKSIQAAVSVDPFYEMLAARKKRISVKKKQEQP

[2] = biological target: T1, Cytohesin-2 (Homo sapiens); assay: Inhibition of human Alexa 488 labeled Arno Sec7 domain-mediated promiscuous aggregator activity in delta17 Arf1 (17 to 181) at 1 to 100 uM by fluorescence anisotropy assay
Cytohesin-2 [3] = biological target: T2, Cytohesin-2 (Homo sapiens, UniProt Q99418); assay: Inhibition of human Arno Sec7 domain-mediated nucleotide exchange in delta17 Arf1 (17 to 181) by BODIPY-GTP based time resolved fluorescence assay; conditions: read-out: Ki(app)
T2 sequence (Q99418 whole entry): T1 sequence (whole entry)

Cytohesin-2 [4] = biological target: T2, Cytohesin-2; assay: Binding affinity to human Arno Sec7 domain immobilized on CAP sensor chip after 15 mins by […]
[5] = biological target: T1, Cytohesin-2 (Homo sapiens); assay: Binding affinity to human Arno Sec7 domain immobilized on CAP sensor chip at 1 mM after 15 mins by […]
[6] = biological target: T1, Cytohesin-2 (Homo sapiens); assay: Binding affinity to human Arno Sec7 domain immobilized on CAP sensor chip at 250 uM by surface plasmon resonance analysis
[7] = biological target: T1, Cytohesin-2 (Homo sapiens); assay: Inhibition of human Arno Sec7 domain […] delta17 Arf1 (17 to 181) at 1 mM after 15 mins by BODIPY-GTP based time resolved fluorescence assay relative to control
[8] = biological target: T1, Cytohesin-2 (Homo sapiens); assay: Inhibition of human Arno Sec7 domain-mediated nucleotide exchange in delta17 Arf1 (17 to 181) at 1 mM by BODIPY-GTP based time resolved fluorescence assay relative to control
[9] = biological target: T1, Cytohesin-2 (Homo sapiens); assay: Inhibition of human Alexa 488 labeled Arno Sec7 domain-mediated promiscuous aggregator activity in delta17 Arf1 (17 to 181) at 100 uM by fluorescence anisotropy assay
[10] = biological target: T1, Cytohesin-2 (Homo sapiens); assay: Inhibition of human Alexa 488 labeled Arno Sec7 domain-mediated promiscuous aggregator activity in delta17 Arf1 (17 to 181) at >20 uM by fluorescence anisotropy assay

inhibition [1]	Ki (Cytohesin-2 [3])	Activity [5]	Activity [6]	inhibition [8]	Compound	other results
34.6%	3.72 mM	Active	Active		Cc1cc(O)cc(C)c1NS(=O)(=O)c1ccccc1	inhibition [2]: inactive; Kd (Cytohesin-2 [4]): 0.5 mM; inhibition [7]: 30%
				66.7%	Cc1ccc(S(=O)(=O)Nc2cc(C)c(O)cc2C)cc1	
24.2%					Cc1c(O)ccc(NS(=O)(=O)c2ccccc2)c1C	
		inactive		21.6%	O=S(=O)(Nc1ccccc1O)c1ccccc1	
31.2%	5.12 mM				Cc1cc(NS(=O)(=O)c2ccccc2)cc(C)c1O	
	1.91 mM			32.7%	Cc1ccc(S(=O)(=O)Nc2c(C)cc(O)cc2C)cc1	

The remaining lines, values behind:

Compound	inhibition [1]	Ki (Cytohesin-2 [3])	Activity [5]	Activity [6]	inhibition [8]	other results
O=C1CNC(=O)N1C12CC3CC(CC(C3)C1)C2			inactive	Active		
Cc1cc(O)cc(C)c1NC(=O)c1cccc([N+](=O)[O-])c1	16%		Active			
Cc1ccc(C)c(-c2csc(N)n2)c1	22.6%		Active	Active		inhibition [2]: inactive
COc1cc(C(=O)Nc2c(C)cc(O)cc2C)cc(OC)c1OC	9.9%		Active			
Cc1cc(O)ccc1NS(=O)(=O)c1cccs1	16.4%		Active	Active		inhibition [2]: inactive
CCN(CC)Cc1cc(NC(C)=O)ccc1O			inactive	Active		
COc1ccc(S(=O)(=O)Nc2c(C)cc(O)cc2C)cc1		1.61 mM			32.1%	inhibition [7]: 35%
CC(C)(C)c1ccc(C(=O)NCc2ccco2)cc1						inhibition [9]: Active
Cc1cc(C)c(S(=O)(=O)Nc2ccc(O)cc2C)c(C)c1		0.98 mM			51.5%	
Cc1c(C(N)=O)sc(N)c1C(=O)OC(C)C	37.9%		Active	inactive		inhibition [2]: inactive
Clc1ccccc1C(c1ccccc1)(c1ccccc1)n1ccnc1						inhibition [10]: Active
Cc1cc(O)cc(C)c1NS(=O)(=O)c1ccc([N+](=O)[O-])cc1		0.54 mM	Active		58.4%	
